Here are results for 21 compounds from patent publication US7875645B2, “Method for the treatment of CNS disorders with substituted 2-imidazoles or imidazole derivatives” (Hoffman-La Roche Inc., priority 2006, dated 2011).

Counter-ions that a name gives are not always drawn.

The target of one assay is T1, TAAR1 (Mus musculus, UniProt Q923Y8).
T1 construct: expressed in transfected cells; host or cells: HEK293 (ATCC # CRL-1573), stably transfected with pIRESneo2 expression plasmid; membranes prepared
T1 sequence (Q923Y8 whole entry): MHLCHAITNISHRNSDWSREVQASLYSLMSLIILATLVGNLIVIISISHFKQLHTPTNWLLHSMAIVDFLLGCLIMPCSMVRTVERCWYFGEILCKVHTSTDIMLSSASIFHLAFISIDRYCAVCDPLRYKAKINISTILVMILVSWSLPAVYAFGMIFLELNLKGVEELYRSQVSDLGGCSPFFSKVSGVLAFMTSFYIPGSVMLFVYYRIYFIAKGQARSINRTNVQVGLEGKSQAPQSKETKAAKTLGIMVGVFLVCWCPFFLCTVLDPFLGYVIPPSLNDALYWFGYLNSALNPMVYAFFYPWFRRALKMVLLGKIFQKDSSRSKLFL
Briefly: Radioligand binding assay on membranes of HEK293 cells stably expressing TAAR1. Particulars: mouse TAAR1; radioligand [3H]-rac-2-(1,2,3,4-tetrahydro-1-naphthyl)-2-imidazoline at 60 nM; 4° C., 30 min. The method, then:
For the construction of expression plasmids the coding sequences of human, rat and mouse TAAR 1 were amplified from genomic DNA essentially as described by Lindemann et al.. The Expand High Fidelity PCR System (Roche Diagnostics) was used with 1.5 mM Mg^2+ and purified PCR products were cloned into pCR2.1-TOPO cloning vector (Invitrogen) following the instructions of the manufacturer. PCR products were subcloned into the pIRESneo2 vector (BD Clontech, Palo Alto, Calif.), and expression vectors were sequence verified before introduction in cell lines.
For the generation of stably transfected cell lines HEK293 cells were transfected with the pIRESneo2 expression plasmids containing the TAAR coding sequences (described above) with Lipofectamine 2000 (Invitrogen) according to the instructions of the manufacturer, and 24 hrs post transfection the culture medium was supplemented with 1 mg/ml G418 (Sigma, Buchs, Switzerland). After a culture period of about 10 d clones were isolated, expanded and tested for responsiveness to trace amines (all compounds purchased from Sigma) with the cAMP Biotrak Enzyme immunoassay (EIA) System (Amersham) following the non-acetylation EIA procedure provided by the manufacturer.
Cells at confluence were rinsed with ice-cold phosphate buffered saline without Ca^2+ and Mg^2+ containing 10 mM EDTA and pelleted by centrifugation at 1000 rpm for 5 min at 4° C. The pellet was then washed twice with ice-cold phosphate buffered saline and cell pellet was frozen immediately by immersion in liquid nitrogen and stored until use at −80° C. Cell pellet was then suspended in 20 ml HEPES-NaOH (20 mM), pH 7.4 containing 10 mM EDTA, and homogenized with a Polytron (PT 3000, Kinematica) at 10,000 rpm for 10 s. The homogenate was centrifuged at 48,000×g for 30 min at 4° C. and the pellet resuspended in 20 ml HEPES-NaOH (20 mM), pH 7.4 containing 0.1 mM EDTA (buffer A), and homogenized with a Polytron at 10,000 rpm for 10 s. The homogenate was then centrifuged at 48,000×g for 30 min at 4° C. and the pellet resuspended in 20 ml buffer A, and homogenized with a Polytron at 10,000 rpm for 10 s. Protein concentration was determined by the method of Pierce (Rockford, Ill.). The homogenate was then centrifuged at 48,000×g for 10 min at 4° C., resuspended in HEPES-NaOH (20 mM), pH 7.0 including MgCl2 (10 mM) and […] homogenized with a Polytron at 10,000 rpm for 10 s.
Binding assay was performed at 4° C. in a final volume of 1 ml, and with an incubation time of 30 min. […] Non-specific binding was defined as the amount of [^3H]-rac-2-(1,2,3,4-tetrahydro-1-naphthyl)-2-imidazoline bound in the presence of the appropriate unlabelled ligand (10 μM). Competing ligands were tested in a wide range of concentrations (10 pM-30 μM). […] Each experiment was performed in duplicate. Al incubations were terminated by rapid filtration through UniFilter-96 plates (Packard Instrument Company) and glass filter GF/C, pre-soaked for at least 2 h in polyethylenimine 0.3%, and using a Filtermate 96 Cell Harvester (Packard Instrument Company). The tubes and filters were then washed 3 times with 1 ml aliquots of cold buffer B. Filters were not dried and soaked in Ultima gold (45 μl/well, Packard Instrument Company) and bound radioactivity was counted by a TopCount Microplate Scintillation Counter (Packard Instrument Company).
Consider `Cc1ccc2ccccc2c1CC1=NCCN1` [Example 154, 2-(2-Methyl-naphthalen-1-ylmethyl)-4,5-dihydro-1H-imidazole], for which the affinity, expressed as Ki, was 0.01 µM.
On the same count and under the same terms, as for `c1ccc2cc(CC3=NCCN3)ccc2c1` [Example 141, 2-Naphthalen-2-ylmethyl-4,5-dihydro-1H-imidazole], the figure is 0.029 µM; as for `CC(C1=NCCN1)c1ccc(Cc2ccccc2)cc1` (racemic) [Example 158, rac-2-[1-(4-Benzyl-phenyl)-ethyl]-4,5-dihydro-1H-imidazole hydrochloride], 0.021 µM.
Still for that read-out and setting: as for `Brc1c(CC2=NCCN2)ccc2ccccc12` [Example 175, 2-(1-Bromo-naphthalen-2-ylmethyl)-4,5-dihydro-1H-imidazole], the figure is 0.011 µM.
`c1ccc2c(CC3=NCCN3)csc2c1` [Example 143, 2-Benzo[b]thiophen-3-ylmethyl-4,5-dihydro-1H-imidazole]: the affinity, expressed as Ki, was 0.004 µM.
Take `CCc1ccc(OCc2ccccc2)c(CC)c1Cc1ncc[nH]1` [Example 218, 2-(3-Benzyloxy-2,6-diethyl-benzyl)-1H-imidazole]: the Ki (in general, the dissociation constant of the complex between target and ligand, obtained from inhibition or displacement) came to 0.047 µM.
Turning to `COc1cc(C)c(Cc2ncc[nH]2)c(C)c1` [Example 73, 2-(4-Methoxy-2,6-dimethyl-benzyl)-1H-imidazole], the affinity corresponds to a Ki of 0.049 µM.
Compound `COc1cccc(Cl)c1CC1=NCCN1` [Example 55, 2-(2-Chloro-6-methoxy-benzyl)-4,5-dihydro-1H-imidazole] returned a Ki of 0.017 µM.
Take `Cc1cc(C(C)(C)C)cc(C)c1CC1=NCCN1` [Example 114, 2-(4-tert-Butyl-2,6-dimethyl-benzyl)-4,5-dihydro-1H-imidazole, reference compound]: the affinity, expressed as Ki, was 0.006 µM.
Still for that read-out and setting: as for `Cc1cccc(C(C)C2=NCCN2)c1C` (racemic) [Example 18, rac-2-[1-(2,3-Dimethyl-phenyl)-ethyl]-4,5-dihydro-1H-imidazole hydrochloride], the figure is 0.027 µM.
`CCc1ccc(OC)c(CC)c1CC1=NCCN1` [Example 206, 2-(2,6-Diethyl-3-methoxy-benzyl)-4,5-dihydro-1H-imidazole] registered a Ki of 0.038 µM.
Compound `c1ccc(C2CC2)c(CC2=NCCN2)c1` [Example 56, 2-(2-Cyclopropyl-benzyl)-4,5-dihydro-1H-imidazole] gave a Ki of 0.025 µM.
In turn, `CCc1cccc(CC)c1Cc1ncc[nH]1` [Example 70, 2-(2,6-Diethyl-benzyl)-1H-imidazole] returned a Ki of 0.025 µM. This lies in the double-digit nanomolar range.
As to `CCc1c(Cl)ccc(F)c1CC1=NCCN1` [Example 198, 2-(3-Chloro-2-ethyl-6-fluoro-benzyl)-4,5-dihydro-1H-imidazole], the inhibition constant (Ki) stood at 0.036 µM.
In turn, `Clc1cccc(I)c1CC1=NCCN1` [Example 187, 2-(2-Chloro-6-iodo-benzyl)-4,5-dihydro-1H-imidazole] yielded an inhibitory constant (Ki) of 0.016 µM. This Ki lies about 2.2-fold lower than the previous one.
The compound `COc1cc(Br)c(C)c(CC2=NCCN2)c1` [Example 58, 2-(3-Bromo-5-methoxy-2-methyl-benzyl)-4,5-dihydro-1H-imidazole] yielded a Ki of 0.03 µM.
The compound `CCc1ccc(Br)c(CC)c1Cc1ncc[nH]1` [Example 77, 2-(3-Bromo-2,6-diethyl-benzyl)-1H-imidazole] displayed a Ki of 0.026 µM. This Ki and that of the compound before are within 1.5-fold of each other.
`COc1cccc(C)c1CC1=NCCN1` [Example 10, 2-(2-Methoxy-6-methyl-benzyl)-4,5-dihydro-1H-imidazole]: the Ki was 0.023 µM.
In turn, `CCc1cccc(C(C)C)c1CC1=NCCN1` [Example 12, 2-(2-Ethyl-6-isopropyl-benzyl)-4,5-dihydro-1H-imidazole] displayed a Ki of 0.03 µM.
The compound `Cc1cc(C(C)(C)C)c(O)c(C)c1CC1=NCCN1` [Example 117, 6-tert-Butyl-3-(4,5-dihydro-1H-imidazol-2-ylmethyl)-2,4-dimethyl-phenol, reference compound] showed a Ki of 0.008 µM.

Still in this assay, the particulars now being: radioligand used in the TAAR1 binding assay; species not given; read-out: calculated Kd value of the radioligand.
`c1ccc2c(c1)CCCC2C1=NCCN1` (racemic) [[^3H]-rac-2-(1,2,3,4-tetrahydro-1-naphthyl)-2-imidazoline, reference compound]: the Kd (in general, the concentration at which binding is half-saturated) was 60 nM.
